Laboratory results as given in patent publication US20230364194A1, “GLP-1R/GCGR Dual Target Agonist Polypeptide Derivative for Treatment of Hepatic Fibrosis Associated with Viral Hepatitis” (Shenzhen Turier Biotech. Co., Ltd., priority 2020, published 2023).
Starred links: 1 amine or outer side, 2 acyl side, 3 side chain; linkers in the order of their positions; H or OH if unused. Non-standard residues stand in square brackets, D forms with d. Groups on a side chain read outwards from the residue. Primed or numbered codes have the meaning given here. No end group written: not given here. *: point of attachment. C18 diacid = O=C(O)CCCCCCCCCCCCCCCCC(=O)*; C16 diacid = O=C(O)CCCCCCCCCCCCCCC(=O)*; γGlu = O=C(O)[C@H](CCC(=O)[*:2])N[*:1]; Stearoyl = CCCCCCCCCCCCCCCCCC(=O)*; Palmitoyl = CCCCCCCCCCCCCCCC(=O)*; PEG2′ = not defined here; Aib = CC(C)(N)C(=O)O

System: Hepatic stellate cell strain LX-2
Experiment: In vitro effect on expression of LX-2 cell activation marker α-SMA (Western Blot, β-actin reference)
Type: cell-based
Conditions: LX-2 cells, 10.0 uM, 48 hours, negative control = 100%
Excerpt: Hepatic stellate cell strain LX-2 (from China Center for Type Culture Collection, Shanghai) was selected to study and observe the effects of polypeptide compounds 1-25 on the expression level of LX-2 cell activation marker α-smooth muscle actin (α-SMA). The control group was given the same volume of Dulbecco’s modified Eagle medium (DMEM) (from Gibco, United States), and β-actin (from TransGen Biotech) as the endogenous reference, wherein, α-SMA is a symbolic feature that distinguishes […] from myofibroblasts.
Hepatic stellate cell LX-2 was laid on 35 mm cell culture plate, cultured with DMEM (high glucose)+10% FBS+1% double-antibody culture medium (Thermo Fisher), placed overnight when the cells grew to 70% convergence at 37° C. under the condition of 5% CO2 without serum, and treated with the above GLP-1R/GCGR dual target agonist polypeptide derivatives (namely, polypeptide compounds 1-25) (dissolved in PBS) for 48 hours from the next morning to extract cell protein, and then Western Blot was performed with β-actin as endogenous reference to analyze the expression levels of α-SMA and β-actin by gray-scale analysis using Image J 1.50i. PBS with the same volume as that in experimental group was added in negative control.
The above polypeptide compounds 1-25 with a concentration of 10.0 µM were added, showing that they could reduce the expression of α-SMA at the concentration of 10.0 µM; and the negative control had no effect on the expression of α-SMA (referring to Table 2).
The integrated gray scale of α-SMA/β-actin in the negative control group was considered to be 100% to analyze the in vitro inhibitory activity on hepatic fibrosis by tested polypeptides.

Row | Substance | Relative expression of α-SMA (α-SMA/β-actin, %) [%]
1 | His-(D-Ser)-Gln-Gly-Thr-Phe-Thr-Ser-Asp-Tyr-Ser-Lys-Tyr-Leu-Asp-Glu-Lys-Ala-Ala-Lys(PEG2-PEG2-yGlu- CO(CH2)16CO2H)-Glu-Phe-Ile-Glu-Trp-Leu-Leu-Asn-Gly- Gly-Gly-Pro-Ser-Ser-Gly-Ala-Pro-Pro-Pro-Ser-NH2 (H[dS]QGTFTSDYSKYLDEKAAK([PEG2′-PEG2′-γGlu-C18 diacid])EFIEWLLNGGGPSSGAPPPS-NH2) [Compound 12] | 41.99
2 | His-(D-Ser)-Gln-Gly-Thr-Phe-Thr-Ser-Asp-Tyr-Ser-Lys-Tyr-Leu-Asp-Lys(PEG2-PEG2-γGlu-CO(CH2)16CH3)-Arg-Arg-Ala- Gln-Asp-Phe-Val-Gln-Trp-Leu-Met-Asn-Thr-Gly-Gly-Pro-Ser-Ser-Gly-Ala-Pro-Pro-Pro-Ser-NH2 (H[dS]QGTFTSDYSKYLDK([PEG2′-PEG2′-γGlu-Stearoyl])RRAQDFVQWLMNTGGPSSGAPPPS-NH2) [Compound 19] | 44.78
3 | His-Aib-Gln-Gly-Thr-Phe-Thr-Ser-Asp-Lys(PEG2-PEG2-γGlu- CO(CH2)14CO2H)-Ser-Lys-Tyr-Leu-Asp-Glu-Arg-Arg-Ala- Gln-Asp-Phe-Val-Gln-Trp-Leu-Leu-Asp-Gly-Gly-Gly-Pro-Ser-Ser-Gly-Ala-Pro-Pro-Pro-Ser-NH2 (H[Aib]QGTFTSDK([PEG2′-PEG2′-γGlu-C16 diacid])SKYLDERRAQDFVQWLLDGGGPSSGAPPPS-NH2) [Compound 3] | 45.28
4 | His-(D-Ser)-Gln-Gly-Thr-Phe-Thr-Ser-Asp-Tyr-Ser-Lys-Tyr-Leu-Asp-Lys(PEG2-PEG2-yGlu-CO(CH2)16CO2H)-Arg-Arg- Ala-Gln-Asp-Phe-Val-Gln-Trp-Leu-Leu-Asn-Thr-Gly-Gly-Pro-Ser -Ser-Gly-Ala-Pro-Pro-Pro-Ser-NH2 (H[dS]QGTFTSDYSKYLDK([PEG2′-PEG2′-γGlu-C18 diacid])RRAQDFVQWLLNTGGPSSGAPPPS-NH2) [Compound 22] | 48.76
5 | His-(D-Ser)-Gln-Gly-Thr-Phe-Thr-Ser-Asp-Tyr-Ser-Lys-Tyr-Leu-Asp-Lys(PEG2-PEG2-CO(CH2)16CO2H)-Arg-Arg-Ala- Gln-Asp-Phe-Val-Gln-Trp-Leu-Met-Asn-Thr-Gly-Gly-Pro-Ser-Ser-Gly-Ala-Pro-Pro-Pro-Ser-NH2 (H[dS]QGTFTSDYSKYLDK([PEG2′-PEG2′-C18 diacid])RRAQDFVQWLMNTGGPSSGAPPPS-NH2) [Compound 18] | 45.95
6 | His-(D-Ser)-Gln-Gly-Thr-Phe-Thr-Ser-Asp-Tyr-Ser-Lys-Tyr-Leu-Asp-Lys-Lys(PEG2-PEG2-γGlu-CO(CH2)16CO2H)-Ala- Ala-His-Asp-Phe-Val-Glu-Trp-Leu-Leu-Arg-Thr-Gly-Gly-Pro-Ser-Ser-Gly-Ala-Pro-Pro-Pro-Ser-NH2 [Compound 7] | 46.53
7 | His-(D-Ser)-Gln-Gly-Thr-Phe-Thr-Ser-Asp-Tyr-Ser-Lys-Tyr-Leu-Asp-Lys(PEG2-PEG2-yGlu-CO(CH2)16CO2H)-Arg-Arg- Ala-Gln-Asp-Phe-Val-Gln-Trp-Leu-Nle-Asn-Thr-Gly-Gly-Pro-Ser -Ser-Gly-Ala-Pro-Pro-Pro-Ser-NH2 (HXQGTFTSDYSKYLDKRRAQDFVQWLXNTGGPSSGAPPPS; D-Ser; Nle; PEG2-PEG2-γGlu-C18 diacid lipidation; C-terminal amide; (2)..(2) Xaa=D-Ser; (16)..(16) A side chain of Lys is linked to -PEG2-PEG2-AGlu-CO(CH2)16CO2H; (27)..(27) Xaa=Nle) [Compound 21] | 43.39
8 | His-Aib-Gln-Gly-Thr-Phe-Thr-Ser-Asp-Lys(PEG2-PEG2-yGlu- CO(CH2)14CH3)-Ser-Lys-Tyr-Leu-Asp-Glu-Arg-Arg-Ala-Gln- Asp-Phe-Val-Gln-Trp-Leu-Leu-Asp-Gly-Gly-Gly-Pro-Ser-Ser-Gly-Ala-Pro-Pro-Pro-Ser-NH2 (H[Aib]QGTFTSDK([PEG2′-PEG2′-γGlu-Palmitoyl])SKYLDERRAQDFVQWLLDGGGPSSGAPPPS-NH2) [Compound 6] | 42.34
9 | His-(D-Ser)-Gln-Gly-Thr-Phe-Thr-Ser-Asp-Tyr-Ser-Lys-Tyr-Leu-Asp-Lys(PEG2-PEG2-γGlu-CO(CH2)16CO2H)-Arg-Arg- Ala-Gln-Asp-Phe-Val-Gln-Trp-Leu-Met-Asn-Thr-Gly-Gly-Pro-Ser-Ser-Gly-Ala-Pro-Pro-Pro-Ser-NH2 (H[dS]QGTFTSDYSKYLDK([PEG2′-PEG2′-γGlu-C18 diacid])RRAQDFVQWLMNTGGPSSGAPPPS-NH2) [Compound 17] | 38.78
10 | His-(D-Ser)-Gln-Gly-Thr-Phe-Thr-Ser-Asp-Tyr-Ser-Lys-Tyr-Leu-Asp-Glu-Lys-Ala-Ala-Lys(PEG2-PEG2-γGlu- CO(CH2)16CH3)-Glu-Phe-Ile-Glu-Trp-Leu-Leu-Asn-Gly-Gly- Gly-Pro-Ser-Ser-Gly-Ala-Pro-Pro-Pro-Ser-NH2 (H[dS]QGTFTSDYSKYLDEKAAK([PEG2′-PEG2′-γGlu-Stearoyl])EFIEWLLNGGGPSSGAPPPS-NH2) [Compound 14] | 47.85
11 | His-Aib-Gln-Gly-Thr-Phe-Thr-Ser-Asp-Lys(PEG2-PEG2-yGlu- CO(CH2)16CH3)-Ser-Lys-Tyr-Leu-Asp-Glu-Arg-Arg-Ala-Gln- Asp-Phe-Val-Gln-Trp-Leu-Leu-Asp-Gly-Gly-Pro-Ser-Ser-Gly-Ala-Pro-Pro-Pro-Ser-NH2 (H[Aib]QGTFTSDK([PEG2′-PEG2′-γGlu-Stearoyl])SKYLDERRAQDFVQWLLDGGPSSGAPPPS-NH2) [Compound 4] | 40.19
12 | His-(D-Ser)-Gln-Gly-Thr-Phe-Thr-Ser-Asp-Tyr-Ser-Lys-Tyr-Leu-Asp-Glu-Lys(PEG2-PEG2-γGlu-CO(CH2)16CO2H)-Ala- Ala-His-Asp-Phe-Val-Glu-Trp-Leu-Leu-Asn-Gly-Gly-Gly-Pro-Ser-Ser-Gly-Ala-Pro-Pro-Pro-Ser-NH2 (H[dS]QGTFTSDYSKYLDEK([PEG2′-PEG2′-γGlu-C18 diacid])AAHDFVEWLLNGGGPSSGAPPPS-NH2) [Compound 9] | 40.89
13 | His-(D-Ser)-Gln-Gly-Thr-Phe-Thr-Ser-Asp-Tyr-Ser-Lys-Tyr-Leu-Asp-Lys(PEG2-PEG2-CO(CH2)16CO2H)-Arg-Arg-Ala- Gln-Asp-Phe-Val-Gln-Trp-Leu-Nle-Asn-Thr-Gly-Gly-Pro-Ser-Ser-Gly-Ala-Pro-Pro-Pro-Ser-NH2 (HXQGTFTSDYSKYLDKRRAQDFVQWLXNTGGPSSGAPPPS; D-Ser; Nle; PEG2-PEG2-C18 diacid lipidation; C-terminal amide; (2)..(2) Xaa=D-Ser; (16)..(16) A side chain of Lys is linked to -PEG2-PEG2-CO(CH2)16CO2H; (27)..(27) Xaa=Nle) [Compound 24] | 52.65
14 | His-(D-Ser)-Gln-Gly-Thr-Phe-Thr-Ser-Asp-Tyr-Ser-Lys-Tyr-Leu-Asp-Glu-Lys-Ala-Ala-Lys(PEG2-PEG2-γGlu- CO(CH2)14C3)-Glu-Phe-Ile-Glu-Trp-Leu-Leu-Arg-Gly-Gly- Gly-Pro-Ser-Ser-Gly-Ala-Pro-Pro-Pro-Ser-NH2 (H[dS]QGTFTSDYSKYLDEKAAK([PEG2′-PEG2′-γGlu-Palmitoyl])EFIEWLLRGGGPSSGAPPPS-NH2) [Compound 10] | 46.35
15 | His-(D-Ser)-Gln-Gly-Thr-Phe-Thr-Ser-Asp-Tyr-Ser-Lys-Tyr-Leu-Asp-Lys-Lys(PEG2-PEG2-γGlu-CO(CH2)14CH3)-Arg-Ala- Gln-Asp-Phe-Val-Gln-Trp-Leu-Met-Asn-Thr-Gly-Gly-Pro-Ser-Ser-Gly-Ala-Pro-Pro-Pro-Ser-NH2 (H[dS]QGTFTSDYSKYLDKK([PEG2′-PEG2′-γGlu-Palmitoyl])RAQDFVQWLMNTGGPSSGAPPPS-NH2) [Compound 16] | 40.86
16 | His-(D-Ser)-Gln-Gly-Thr-Phe-Thr-Ser-Asp-Tyr-Ser-Lys-Tyr-Leu-Asp-Glu-Lys-Ala-Ala-Lys(PEG2-PEG2-γGlu- CO(CH2)16CO2H)-Glu-Phe-Ile-Glu-Trp-Leu-Leu-Arg-Thr-Gly- Gly-Pro-Ser-Ser-Gly-Ala-Pro-Pro-Pro-Ser-NH2 (H[dS]QGTFTSDYSKYLDEKAAK([PEG2′-PEG2′-γGlu-C18 diacid])EFIEWLLRTGGPSSGAPPPS-NH2) [Compound 8] | 39.92
17 | His-(D-Ser)-Gln-Gly-Thr-Phe-Thr-Ser-Asp-Tyr-Ser-Lys-Tyr-Leu-Asp-Lys(PEG2-PEG2-γGlu-CO(CH2)14CH3)-Arg-Arg-Ala- Gln-Asp-Phe-Val-Gln-Trp-Leu-Met-Asn-Thr-Gly-Gly-Pro-Ser-Ser-Gly-Ala-Pro-Pro-Pro-Ser-NH2 (H[dS]QGTFTSDYSKYLDK([PEG2′-PEG2′-γGlu-Palmitoyl])RRAQDFVQWLMNTGGPSSGAPPPS-NH2) [Compound 1] | 57.59
